From US7317028B2, “Cell differentiation inducer” (Schering Aktiengesellschaft, priority 1996, dated 2008) come the findings set out here.

One data set deals with A2780 cells. The data set is described as follows: Test for induction of differentiation in A2780 cells (ALP activity, ALPmin). In kind it is cell-based, human. The following applies: Homo sapiens, 72 h; A2780 cells, 3 days incubation; minimum concentration of the drug inducing increase of ALP activity. As to the method:
Increase of alkaline phosphatase (ALP) activity is known as an indicator for differentiation of human colon cancer cells. […] Thus, differentiation inducing action was evaluated using ALP activity as an indicator.
To each well of a 96-well plate was placed 0.1 mL of A2780 cells (15,000 cells/well) and the next day was added 0.1 mL of a sequential dilute of test solution with the medium. […] The reaction was quenched with 0.05 mL/well of 3N sodium hydroxide aq. For each well, an absorbance at 405 nm was measured to determine the minimum concentration of the drug inducing increase of ALP activity (ALPmin).

As a reminder, the minimal effective concentration is the smallest amount tested that counted as effective. Low values mean greater potency, high ones weaker potency. Usually melting point stands for the temperature of the solid-liquid transition. As to `Nc1ccccc1NC(=O)c1ccc(CNC(=O)c2ccno2)cc1` [Example 25, N-(2-aminophenyl)-4-[N-(isoxazol-5-yl)carbonylaminomethyl]benzamide], the melting point was 183 to 185 °C (dec.). In the data set with A2780 cells, this molecule yielded a minimal effective concentration of 3 µM.

Take `Cc1cc(C(=O)NCc2ccc(C(=O)Nc3ccccc3N)cc2)sn1` [Example 26, N-(2-aminophenyl)-4-[N-(3-methylisothiazol-5-yl)carbonylaminomethyl]benzamide]: the melting point was in the range of 168 to 169 °C. In the data set on A2780 cells, this molecule gave a minimal effective concentration of 1 µM.

On to `Nc1cccc(CC(=O)NCc2ccc(C(=O)Nc3ccccc3N)cc2)c1` [Example 28, N-(2-aminophenyl)-4-[N-(3-aminophenyl)acetylaminomethyl]benzamide], for which the melting point was in the range of 171 to 176 °C. In addition, in the data set on A2780 cells, the minimal effective concentration stood at 10 µM.

`Nc1ccccc1NC(=O)c1ccc(CNC(=O)Cc2cccnc2)cc1` [Example 29, N-(2-aminophenyl)-4-[N-(pyridin-3-yl)acetylaminomethyl]benzamide] gave a melting point of 127 °C. Moreover, the minimal effective concentration with A2780 cells amounted to 10 µM.

`Nc1ccccc1NC(=O)c1ccc(CNC(=O)CCc2cccnc2)cc1` [Example 30, N-(2-aminophenyl)-4-[N-[3-(pyridin-3-yl)propionyl]aminomethyl]benzamide] yielded a melting point of 183 to 186 °C. Also, the minimal effective concentration in the data set with A2780 cells was 0.1 µM.

As to `Nc1ccccc1NC(=O)c1ccc(CNC(=O)CCC(=O)c2cccnc2)cc1` [Example 31, N-(2-aminophenyl)-4-[N-[4-(pyridin-3-yl)-1,4-dioxobutyl]aminomethyl]benzamide], the melting point was 145 to 147 °C (dec.). The same molecule displayed a minimal effective concentration with A2780 cells of 10 µM.

`Nc1ccccc1NC(=O)c1ccc(CNC(=O)COc2cncc(Cl)c2)cc1` [Example 32, N-(2-aminophenyl)-4-[N-(5-chloropyridin-3-yl)oxyacetylaminomethyl]benzamide]: the melting point lay within 199 to 201 °C. The molecule also registered a minimal effective concentration in the data set with A2780 cells of 3 µM.

`COc1ccc(N)c(NC(=O)c2ccc(CNC(=O)COc3cccnc3)cc2)c1` [Example 33, N-(2-amino-5-methoxyphenyl)-4-[N-(pyridin-3-yl)oxyacetylaminomethyl]benzamide] displayed a melting point of 141 to 144 °C. The molecule further showed a minimal effective concentration in the data set on A2780 cells of 0.3 µM.

`Nc1ccccc1NC(=O)c1ccc(CNC(=O)CC(=O)c2cccnc2)cc1` [Example 34, N-(2-aminophenyl)-4-[N-[3-(pyridin-3-yl)-1,3-dioxopropyl]aminomethyl]benzamide] gave a melting point of 204 to 206 °C. In the data set with A2780 cells, this molecule yielded a minimal effective concentration of 0.1 µM.

Molecule `Nc1ccccc1NC(=O)c1ccc(CNC(=O)c2ccc3ncccc3c2)cc1` [Example 37, N-(2-aminophenyl)-4-[N-(quinolin-6-yl)carbonylaminomethyl]benzamide] displayed a melting point of 209 to 210 °C. In the data set on A2780 cells, this molecule yielded a minimal effective concentration of 1 µM.

On to `Nc1ccccc1NC(=O)c1ccc(CNC(=O)c2cc3ncccc3o2)cc1` [Example 38, N-(2-aminophenyl)-4-[N-(furo[3,2-b]pyridin-2-yl)carbonylaminomethyl]benzamide], for which the melting point was 191 °C (dec.). The minimal effective concentration in the data set with A2780 cells is 3 µM.

`Nc1ccccc1NC(=O)c1ccc(CNC(=O)c2cc3ccncc3o2)cc1` [Example 39, N-(2-aminophenyl)-4-[N-(furo[2,3-c]pyridin-2-yl)carbonylaminomethyl]benzamide]: the melting point is 210 °C (dec.). In the data set with A2780 cells, this molecule came in with a minimal effective concentration of 0.1 µM.

Consider `O=C(Cc1cccnc1)NCc1ccc(C(=O)Nc2ccccc2O)cc1` [Example 42, N-(2-hydroxyphenyl)-4-[N-(pyridin-3-yl)acetylaminomethyl]benzamide], for which the melting point is 201 to 202 °C. The minimal effective concentration in the data set with A2780 cells stood at 10 µM.
